# Results reported in patent publication US12129246B1, “Hydroquinazoline derivatives for the treatment of a disease or disorder” (Novartis AG, priority 2023, dated 2024).
# Like-named read-outs stand apart in the source and are kept apart here.
# Experiments:
# [1] = target: monkey NPR1 (Macaca fascicularis, UniProt A0A7N9DBT9); assay: Cellular cGMP production assay, monkey NPR1 expressing CHO-K1 cells (CisBio HTRF); type: cell-based; conditions: for Monkey NPR1 Amax (% of ANP): maximum cGMP production as percentage of the maximum cGMP produced with ANP
# Chain of monkey NPR1 (A0A7N9DBT9 entry or part of it): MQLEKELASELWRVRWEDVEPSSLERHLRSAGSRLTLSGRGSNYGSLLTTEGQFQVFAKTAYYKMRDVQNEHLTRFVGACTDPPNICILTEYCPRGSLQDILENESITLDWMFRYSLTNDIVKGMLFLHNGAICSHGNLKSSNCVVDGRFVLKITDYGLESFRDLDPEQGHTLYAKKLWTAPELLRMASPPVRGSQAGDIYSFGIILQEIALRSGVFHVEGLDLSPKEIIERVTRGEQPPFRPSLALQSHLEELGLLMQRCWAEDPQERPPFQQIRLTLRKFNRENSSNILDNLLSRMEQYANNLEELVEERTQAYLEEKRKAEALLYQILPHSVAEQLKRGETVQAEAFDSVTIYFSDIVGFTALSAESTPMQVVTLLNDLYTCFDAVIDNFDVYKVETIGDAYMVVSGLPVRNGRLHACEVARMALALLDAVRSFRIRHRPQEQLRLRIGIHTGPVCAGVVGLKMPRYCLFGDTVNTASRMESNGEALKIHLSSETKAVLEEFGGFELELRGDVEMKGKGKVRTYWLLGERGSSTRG
# Procedure, shortened: (§1)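 12-pt 3-fold dose-response, top 30 μM; buffer PBS + 0.1% BSA + 1 mM IBMX (PDE inhibitor); 30 min, 37 °C. Lyse, add cGMP-d2 + anti-cGMP-cryptate, 1 h RT. Ex 317 / em 665 nm; Delta F converted to cGMP via calibrator standard curve.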
# [2] = target: T1, human NPR1 (Homo sapiens, UniProt P16066); assay: Cellular cGMP production assay, human NPR1 expressing CHO-K1 cells (CisBio HTRF); type: cell-based; conditions: for AC50: cGMP production, 30 min at 37° C., 12-point dose-response from 30 μM; for Human NPR1 Amax (% of ANP): maximum cGMP production as percentage of the maximum cGMP produced with ANP
# T1 construct: host or cells: CHO-K1
# T1 sequence (P16066 33-1061): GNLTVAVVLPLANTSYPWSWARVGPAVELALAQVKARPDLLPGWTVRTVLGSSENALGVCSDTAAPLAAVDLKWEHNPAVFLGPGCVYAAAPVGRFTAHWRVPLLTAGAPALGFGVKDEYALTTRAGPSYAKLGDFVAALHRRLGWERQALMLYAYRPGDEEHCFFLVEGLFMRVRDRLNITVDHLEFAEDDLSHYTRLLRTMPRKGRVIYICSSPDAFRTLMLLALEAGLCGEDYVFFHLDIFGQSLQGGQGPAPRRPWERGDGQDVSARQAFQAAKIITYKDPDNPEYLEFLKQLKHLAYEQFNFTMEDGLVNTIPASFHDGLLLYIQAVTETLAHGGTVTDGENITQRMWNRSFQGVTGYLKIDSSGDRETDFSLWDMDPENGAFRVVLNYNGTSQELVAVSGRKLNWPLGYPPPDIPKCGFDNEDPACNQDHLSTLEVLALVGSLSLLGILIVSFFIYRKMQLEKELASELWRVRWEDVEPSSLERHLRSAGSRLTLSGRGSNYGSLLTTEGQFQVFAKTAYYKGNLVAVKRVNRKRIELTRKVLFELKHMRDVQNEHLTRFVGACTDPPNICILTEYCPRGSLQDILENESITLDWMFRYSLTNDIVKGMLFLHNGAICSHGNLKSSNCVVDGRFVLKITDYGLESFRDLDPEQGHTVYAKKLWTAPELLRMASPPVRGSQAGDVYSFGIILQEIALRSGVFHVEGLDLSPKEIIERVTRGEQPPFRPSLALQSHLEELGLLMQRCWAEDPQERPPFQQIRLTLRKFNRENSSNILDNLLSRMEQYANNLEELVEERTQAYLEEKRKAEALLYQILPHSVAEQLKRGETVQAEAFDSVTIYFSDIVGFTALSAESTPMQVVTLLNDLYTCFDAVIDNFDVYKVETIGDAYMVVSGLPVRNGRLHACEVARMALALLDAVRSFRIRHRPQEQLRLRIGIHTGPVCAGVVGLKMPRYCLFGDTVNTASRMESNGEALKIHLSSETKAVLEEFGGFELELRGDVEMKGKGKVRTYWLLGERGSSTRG
# Procedure, shortened: as §1
# [3] = cGMP production, monkey NPR1 CHO-K1 cells, 30 min at 37° C., 12-point dose-response from 30 μM, read-out: Monkey NPR1 AC50
SMILES,"AC50 [1, 3] [nM]",Monkey NPR1 Amax (% of ANP) ([1]; monkey NPR1 CHO-K1 cells),AC50 [2] [nM],Human NPR1 Amax (% of ANP) [2],AC50 [1] [nM]
"CC[C@@H](Nc1nc2c(c(N[C@@H](CN3CCCC3)c3ccccc3)n1)CN(c1cccc(F)c1)CC2)[C@H]1CC[C@H](C(=O)O)CC1 [Compound 99, (1R,4r)-4-((R)-1-((6-(3-fluorophenyl)-4-(((R)-1-phenyl-2-(pyrrolidin-1-yl)ethyl)amino)-5,6,7,8-tetrahydropyrido[4,3-d]pyrimidin-2-yl)amino)propyl)cyclohexane-1-carboxylic acid]",256,94.886 % of ANP,351,102.315 % of ANP,
"CC[C@H]([C@H]1CC[C@H](C(=O)O)CC1)N(C)c1nc2c(c(N[C@@H](CN3CCC[C@H](C)C3)c3cnn(C)c3)n1)CN(C1CCCCC1)CC2 [Compound 152, (1R,4r)-4-((R)-1-((6-cyclohexyl-4-(((R)-1-(1-methyl-1H-pyrazol-4-yl)-2-((S)-3-methylpiperidin-1-yl)ethyl)amino)-5,6,7,8-tetrahydropyrido[4,3-d]pyrimidin-2-yl)(methyl)amino)propyl)cyclohexane-1-carboxylic acid]",,106.260 % of ANP,1190,104.537 % of ANP,600
"C[C@@H](Nc1nc2c(c(N[C@@H](CN3CCCC3)c3ccccc3)n1)C[C@H](c1ccccc1)CC2)c1ccc(C(=O)O)cc1 [Compound 159, 4-((R)-1-(((R)-6-phenyl-4-(((R)-1-phenyl-2-(pyrrolidin-1-yl)ethyl)amino)-5,6,7,8-tetrahydroquinazolin-2-yl)amino)ethyl)benzoic acid]",503,98.468 % of ANP,1580,92.446 % of ANP,
"CC[C@@H](N(C)c1nc2c(c(N[C@@H](CN3C4CCCC3CCC4)c3cnn(C)c3)n1)C[C@H](c1ccccc1F)CC2)C12CC(C(=O)O)(C1)C2 [Compound 41, 3-((R)-1-(((R)-4-(((R)-2-(9-azabicyclo[3.3.1]nonan-9-yl)-1-(1-methyl-1H-pyrazol-4-yl)ethyl)amino)-6-(2-fluorophenyl)-5,6,7,8-tetrahydroquinazolin-2-yl)(methyl)amino)propyl)bicyclo[1.1.1]pentane-1-carboxylic acid]",,92.494 % of ANP,168,96.843 % of ANP,144
"CC[C@H]([C@H]1CC[C@H](C(=O)O)CC1)N(C)c1nc2c(c(N[C@@H](CN3CCCC[C@H]3CO)c3cnn(CC)c3)n1)C[C@H](c1cccc(F)c1)CC2 [Compound 135, (1R,4r)-4-((R)-1-(((R)-4-(((R)-1-(1-ethyl-1H-pyrazol-4-yl)-2-((S)-2-(hydroxymethyl)piperidin-1-yl)ethyl)amino)-6-(3-fluorophenyl)-5,6,7,8-tetrahydroquinazolin-2-yl)(methyl)amino)propyl)cyclohexane-1-carboxylic acid]",604,99.242 % of ANP,805,94.757 % of ANP,
"CC[C@@H](Nc1nc2c(c(N[C@@H](CN3CCCC(C)(C)C3)c3cnn(C)c3)n1)C[C@H](c1ccccc1)CC2)[C@H]1CC[C@H](C(=O)O)CC1 [Compound 95, (1R,4r)-4-((R)-1-(((R)-4-(((R)-2-(3,3-dimethylpiperidin-1-yl)-1-(1-methyl-1H-pyrazol-4-yl)ethyl)amino)-6-phenyl-5,6,7,8-tetrahydroquinazolin-2-yl)amino)propyl)cyclohexane-1-carboxylic acid]",173,94.323 % of ANP,334,97.121 % of ANP,
"CC[C@H]([C@H]1CC[C@H](C(=O)O)CC1)N(C)c1nc2c(c(N[C@@H](CN3C4CCCC3CC4)c3ccnn3C)n1)C[C@H](c1cccc(F)c1)CC2 [Compound 164, (1R,4r)-4-((1R)-1-(((6R)-4-(((1S)-2-(8-azabicyclo[3.2.1]octan-8-yl)-1-(1-methyl-1H-pyrazol-5-yl)ethyl)amino)-6-(3-fluorophenyl)-5,6,7,8-tetrahydroquinazolin-2-yl)(methyl)amino)propyl)cyclohexane-1-carboxylic acid]",,92.193 % of ANP,1780,94.088 % of ANP,946
"CC[C@H]([C@H]1CC[C@H](C(=O)O)CC1)N(C)c1nc2c(c(N[C@@H](CN3CC4CCC3C4)c3ccccc3)n1)C[C@H](c1ccccc1)CC2 (stereo partly drawn) [Compound 136, (1R,4r)-4-((1R)-1-(((6R)-4-(((1R)-2-(2-azabicyclo[2.2.1]heptan-2-yl)-1-phenylethyl)amino)-6-phenyl-5,6,7,8-tetrahydroquinazolin-2-yl)(methyl)amino)propyl)cyclohexane-1-carboxylic acid]",516,96.754 % of ANP,812,103.913 % of ANP,
"CC(C)n1cc([C@H](CN2CCCCC2)Nc2nc(N[C@H](C)c3ccc(C(=O)O)cc3)nc3c2C[C@H](c2ccccc2)CC3)cn1 [Compound 171, 4-((R)-1-(((R)-4-(((R)-1-(1-isopropyl-1H-pyrazol-4-yl)-2-(piperidin-1-yl)ethyl)amino)-6-phenyl-5,6,7,8-tetrahydroquinazolin-2-yl)amino)ethyl)benzoic acid]",2320,83.963 % of ANP,2770,96.419 % of ANP,
"CC[C@@H](Nc1nc2c(c(N[C@@H](CN3CC4CCC3C4)c3ccccc3)n1)C[C@H](c1ccccc1)CC2)[C@H]1CC[C@H](C(=O)O)CC1 (stereo partly drawn) [Compound 160, (1R,4r)-4-((1R)-1-(((6R)-4-(((1R)-2-(2-azabicyclo[2.2.1]heptan-2-yl)-1-phenylethyl)amino)-6-phenyl-5,6,7,8-tetrahydroquinazolin-2-yl)amino)propyl)cyclohexane-1-carboxylic acid]",1430,102.098 % of ANP,1620,94.868 % of ANP,
"CC[C@H]([C@H]1CC[C@H](C(=O)O)CC1)N(C)c1nc2c(c(N[C@@H](CN3CCC[C@H](C)C3)c3cnn(C)c3)n1)CN(c1ccc(F)cc1)CC2 [Compound 110, (1R,4r)-4-((R)-1-((6-(4-fluorophenyl)-4-(((R)-1-(1-methyl-1H-pyrazol-4-yl)-2-((S)-3-methylpiperidin-1-yl)ethyl)amino)-5,6,7,8-tetrahydropyrido[4,3-d]pyrimidin-2-yl)(methyl)amino)propyl)cyclohexane-1-carboxylic acid]",238,103.438 % of ANP,419,99.979 % of ANP,
"CC[C@H]([C@H]1CC[C@H](C(=O)O)CC1)N(C)c1nc2c(c(N[C@@H](CN3CCCCC3)c3cnn(C)c3)n1)C[C@](C)(c1ccccc1)CC2 [Compound 66, (1R,4r)-4-((R)-1-(methyl((R)-6-methyl-4-(((R)-1-(1-methyl-1H-pyrazol-4-yl)-2-(piperidin-1-yl)ethyl)amino)-6-phenyl-5,6,7,8-tetrahydroquinazolin-2-yl)amino)propyl)cyclohexane-1-carboxylic acid]",123,98.088 % of ANP,219,96.868 % of ANP,
"CC[C@H]([C@H]1CC[C@H](C(=O)O)CC1)N(C)c1nc2c(c(N[C@@H](CN3CCC[C@H](C)C3)c3cnn(C)c3)n1)C[C@@H](c1cccc(F)c1)CC2 [Compound 75, (1R,4r)-4-((R)-1-(((S)-6-(3-fluorophenyl)-4-(((R)-1-(1-methyl-1H-pyrazol-4-yl)-2-((S)-3-methylpiperidin-1-yl)ethyl)amino)-5,6,7,8-tetrahydroquinazolin-2-yl)(methyl)amino)propyl)cyclohexane-1-carboxylic acid]",,102.588 % of ANP,247,93.803 % of ANP,162
